In ChEMBL document CHEMBL1201861, “Genomics of Drug Sensitity in Cancer screening data, Wellcome Trust Sanger Institute”:

Columns and labels:
Test in all cases: cells
Assay type in all cases: functional, cell-based, Homo sapiens
BHT-101 = conditions: Homo sapiens, BHT-101
Description: SANGER: Inhibition of human BHT-101 cell growth in a cell viability assay.

D-336MG = conditions: Homo sapiens, D-336MG
Description: SANGER: Inhibition of human D-336MG cell growth in a cell viability assay.

GR-ST = conditions: Homo sapiens, GR-ST
Description: SANGER: Inhibition of human GR-ST cell growth in a cell viability assay.

HCC1937 = conditions: Homo sapiens, HCC1937;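 also: growth inhibition measured with a cell viability read-out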
Description: SANGER: Inhibition of human HCC1937 cell growth in a cell viability assay.

K562 = conditions: Homo sapiens, K562
Description: SANGER: Inhibition of human K-562 cell growth in a cell viability assay.

KLE = conditions: Homo sapiens, KLE;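 also: growth inhibition of human KLE cells, read out with a cell viability assay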
Description: SANGER: Inhibition of human KLE cell growth in a cell viability assay.

KYSE-510 = conditions: Homo sapiens, KYSE-510;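 also: cell viability readout used to measure how strongly growth of the cell line is suppressed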
Description: SANGER: Inhibition of human KYSE-510 cell growth in a cell viability assay.

LU-139 = conditions: Homo sapiens, LU-139
Description: SANGER: Inhibition of human LU-139 cell growth in a cell viability assay.

LXF-289 cell line = conditions: Homo sapiens, LXF-289
Description: SANGER: Inhibition of human LXF-289 cell growth in a cell viability assay.

SNU-C2B = conditions: Homo sapiens, SNU-C2B;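 also: cell viability readout used to measure compound-driven suppression of SNU-C2B cell proliferation, IC50 marking half-maximal growth inhibition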
Description: SANGER: Inhibition of human SNU-C2B cell growth in a cell viability assay.

SW900 = conditions: Homo sapiens, SW900;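 also: IC50 is the concentration that inhibits SW900 cell growth, measured by a cell viability assay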
Description: SANGER: Inhibition of human SW900 cell growth in a cell viability assay.

A388 = conditions: Homo sapiens, A388;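 also: growth inhibition of human A388 cells, read out with a cell viability assay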
Description: SANGER: Inhibition of human A388 cell growth in a cell viability assay.

C8166 = conditions: Homo sapiens, C8166;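 also: growth inhibition of human C8166 cells measured by a cell viability assay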
Description: SANGER: Inhibition of human C8166 cell growth in a cell viability assay.

CAL-12T = conditions: Homo sapiens, CAL-12T;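 also: growth inhibition of human CAL-12T cells, read out with a cell viability assay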
Description: SANGER: Inhibition of human CAL-12T cell growth in a cell viability assay.

VMRC-RCZ = conditions: Homo sapiens, VMRC-RCZ;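 also: growth inhibition measured with a cell viability assay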
Description: SANGER: Inhibition of human VMRC-RCZ cell growth in a cell viability assay.

Row | IC50 (BHT-101) [nM] | IC50 (D-336MG) [nM] | IC50 (GR-ST) [nM] | IC50 (HCC1937) [nM] | IC50 (K562) [nM] | IC50 (KLE) [nM] | IC50 (KYSE-510) [nM] | IC50 (LU-139) [nM] | IC50 (LXF-289 cell line) [nM] | IC50 (SNU-C2B) [nM] | IC50 (SW900) [nM] | IC50 (A388) [nM] | IC50 (C8166) [nM] | IC50 (CAL-12T) [nM] | IC50 (VMRC-RCZ) [nM] | Structure (SMILES)
1 | 820 |  |  |  |  |  |  |  |  |  |  |  |  |  |  | CCc1cncnc1N1CCN(Cc2nc3cc(C(F)(F)F)ccc3[nH]2)CC1
2 |  | > 500 | > 500 | > 500 | > 500 | > 500 | > 500 | > 500 | > 500 | > 500 | > 500 | > 500 | > 500 | > 500 | > 500 | COc1cc2ncnc(Nc3ccc(F)c(Cl)c3)c2cc1OCCCN1CCOCC1 [GEFITINIB]
